Results reported in US20220233549A1, “METHOD FOR ALPHAVIRUS INHIBITION” (priority 2019, published 2022).
pEC50: −log10 of the molar value.

Tests used:
Format in all cases: cell-based
Influenza = assay: Activity of Example 1 against non-alphaviruses: Influenza
Dengue = assay: Activity of Example 1 against non-alphaviruses: Dengue; details: Dengue virus
CHIKV 181/clone25 = assay: CHIKV cytopathic effect (CPE) protection assay in Vero cells; details: Chikungunya virus; CHIKV 181/clone25, Vero cells, MOI=0.01, 48 hrs, protection from CPE (crystal violet, absorbance 595nm)
Vaccinia = assay: Activity of Example 1 against non-alphaviruses: Vaccinia; details: Orthopoxvirus vaccinia
VEEV (ZPC) = assay: microbe, parasite or virus in culture; details: Venezuelan equine encephalitis virus
MAYV = assay: Activity of Example 1 against other alphaviruses: MAYV
SINV (TR-339) = assay: organism not typed
ONNV (SG-650) = assay: Activity of Example 1 against other alphaviruses: ONNV
BK Polyomavirus = assay: Activity of Example 1 against non-alphaviruses: BK Polyomavirus; details: Betapolyomavirus hominis

CN1C(=O)C(CC(=O)NCC2CCCCC2)Sc2ncccc21 (stereo not shown) [Example 1, N-(cyclohexylmethyl)-2-(1-methyl-2-oxo-2,3-dihydro-1H-pyrido[2,3-b][1,4]thiazin-3-yl)acetamide]
pEC50 (Influenza): < 4.00 | pEC50 (Dengue): < 4.00 | pEC50 (CHIKV 181/clone25): > 5.00 | pEC50 (Vaccinia): < 4.00 | pEC50 (VEEV (ZPC)): > 5.00 | pEC50 (MAYV): 4.30 to 5.00 | pEC50 (SINV (TR-339)): < 4.00 | pEC50 (ONNV (SG-650)): > 5.00 | pEC50 (BK Polyomavirus): < 4.00

CC1CCN(C(=O)CC2Sc3ncccc3N(C)C2=O)CC1 (stereo not shown) [Example 36, 1-methyl-3-(2-(4-methylpiperidin-1-yl)-2-oxoethyl)-1H-pyrido[2,3-b][1,4]thiazin-2(3H)-one]
pEC50 (CHIKV 181/clone25): < 4.00

CN1C(=O)[C@H](CC(=O)NCC2CCCCC2)Sc2ncccc21 [Example 7, (S)-N-(cyclohexylmethyl)-2-(1-methyl-2-oxo-2,3-dihydro-1H-pyrido[2,3-b][1,4]thiazin-3-yl)acetamide]
pEC50 (CHIKV 181/clone25): 4.30 to 5.00

CC1CCCCN1CCNC(=O)CC1Sc2ncccc2N(C)C1=O (stereo not shown) [Example 40, 2-(1-methyl-2-oxo-2,3-dihydro-1H-pyrido[2,3-b][1,4]thiazin-3-yl)-N-(2-(2-methylpiperidin-1-yl)ethyl)acetamide]
pEC50 (CHIKV 181/clone25): < 4.00

O=C(CC1Sc2ncc(Br)cc2NC1=O)NCC1CCCCC1 (stereo not shown) [Example 87, 2-(7-bromo-2-oxo-2,3-dihydro-1H-pyrido[2,3-b][1,4]thiazin-3-yl)-N-(cyclohexylmethyl)acetamide]
pEC50 (CHIKV 181/clone25): 4.30 to 5.00
